Experimental data as given in patent publication US20160206633A1, “dhS1P AND USE OF SAME AS AN ANTICANCER THERAPEUTIC AND IMMUNOMODULATOR” (Penn State Research Foundation, Inc., priority 2013, published 2016).

What was measured:
isolated MDSC-like cells = test: Whole-genome RNA microarray of isolated MDSC-like cells after dhS1P; type: cell-based, athymic nude mice; conditions: 24 hours dhS1P vs vehicle (BSA); fold-change cut-off 1.2, p-value cut-off 0.05
Method: To more closely evaluate the genetic consequences of the dhS1P-induced decrease in isolated MDSC-like cells and the increase in cells bearing the surface markers of B-cells, a RNA microarray analysis was conducted. MDSC-like cells were isolated from MDA-MB-231 tumor-bearing athymic nude mice, exposed for 24 hours to dhS1P or vehicle (BSA), followed by RNA extraction, and a whole-genome microarray was performed. As compared to vehicle-treated MDSC-like cells, dhS1P treatment of isolated MDSC-like cells altered the expression of a variety of genes.
Isolated MDSC-like cells were cultured for 24 hours in media containing BSA, or dhS1P ([…]), before collection and washing via centrifugation. […]
cDNA was purified according to standard procedures. cDNA was in vitro transcribed to synthesize cRNA using a MEGAscript kit (Ambion, Austin, Tex.). Samples were incubated with T7 10× reaction buffer, T7 Enzyme mix and Biotin-NTP mix at 37° C. for 14 hours. cRNA was purified according to instructions, and the yield was measured using a NanoDrop ND-1000 (NanoDrop Products, Wilmington, Del.). […] BeadChips were dried by centrifugation at 275×g for 4 minutes and subsequently scanned using a BeadArray Reader. […]

[1] = test system: isolated IMCs (GEMM colonies, multipotent myeloid progenitor cells); test: CFU-GEMM colony forming assay of isolated IMCs; type: cell-based, athymic nude mice; conditions: 5 μM, GEMM-supportive semi-solid media, 3 weeks of culture
Method: (A) Splenic IMCs (Gr-1+CD11b+, also defined as MDSCs: myeloid-derived suppressor cells) were isolated from MDA-MB-231 tumor-bearing athymic nude mice and exposed to BSA, S1P (5 μM), or dhS1P (5 μM). Following 24-hour culture incubation, cells were labeled with specific antibodies and analyzed by multicolor flow cytometry (red: IMCs; blue: possible B-cells). (B) Splenic IMCs were isolated from MDA-MB-231 tumor-bearing athymic nude mice and cultured (5×10^4 cells/mL) in GEMM-supportive semi-solid media with BSA, S1P (5 μM), or dhS1P (5 μM). GEMM colonies (multipotent myeloid progenitor cells) were visualized and counted after 3 weeks of culture. ANOVA, *p<0.01 compared to no treatment or BSA-treatment, ***p<0.001 compared to S1P-treatment, n≧3. (C) Splenic hematopoietic progenitors (Lineage-Sca-1+CD117+) were isolated from MDA-MB-231 tumor-bearing athymic nude mice and exposed to BSA, S1P (5 μM), or dhS1P (5 μM). Following 24-hour culture incubation, cells were labeled with specific antibodies and analyzed by multicolor flow cytometry. […]
Isolated IMCs from the spleens of tumor-bearing athymic nude mice were cultured (5×10^4 cells/mL) in GEMM-supportive complete (mouse) methylcellulose media (R&D Systems, Minneapolis, Minn.), according to the manufacturer's instructions, with BSA, S1P (5 μM), or dhS1P (5 μM). GEMM colonies were visualized and counted after 3 weeks of culture.

[2] = test system: splenic IMCs (Gr-1+CD11b+, MDSCs) from MDA-MB-231 tumor-bearing athymic nude mice; test: Isolated IMCs/MDSCs exposed in culture to dhS1P or S1P, multicolor flow cytometry; type: cell-based; conditions: 5 μM, 24-hour culture
Method: (A) Splenic IMCs (Gr-1+CD11b+, also defined as MDSCs: myeloid-derived suppressor cells) were isolated from MDA-MB-231 tumor-bearing athymic nude mice and exposed to BSA, S1P (5 μM), or dhS1P (5 μM). Following 24-hour culture incubation, cells were labeled with specific antibodies and analyzed by multicolor flow cytometry (red: IMCs; blue: possible B-cells). (B) Splenic IMCs were isolated from MDA-MB-231 tumor-bearing athymic nude mice and cultured (5×10^4 cells/mL) in GEMM-supportive semi-solid media with BSA, S1P (5 μM), or dhS1P (5 μM). GEMM colonies (multipotent myeloid progenitor cells) were visualized and counted after 3 weeks of culture. ANOVA, *p<0.01 compared to no treatment or BSA-treatment, ***p<0.001 compared to S1P-treatment, n≧3. (C) Splenic hematopoietic progenitors (Lineage-Sca-1+CD117+) were isolated from MDA-MB-231 tumor-bearing athymic nude mice and exposed to BSA, S1P (5 μM), or dhS1P (5 μM). Following 24-hour culture incubation, cells were labeled with specific antibodies and analyzed by multicolor flow cytometry.
The effect of dhS1P was further investigated at the level of MDSC-like cells, which were reduced as a function of treatment. The effects of dhS1P were directly compared with those of S1P as to delineate a difference in their physiological roles. Tumor-expanded IMCs/MDSCs were isolated and exposed in culture to either dhS1P or S1P. […]

CCCCCCCCCCCCCCC[C@@H](O)[C@@H](N)COP(=O)(O)O [dhS1P, dihydrosphingosine-1-phosphate]
Number of significantly regulated genes (isolated MDSC-like cells): 319
CFU-GEMM colony formation [1]: completely abrogated
Population of cells displaying CD19 and CD45R B220 in isolated IMC culture [2]: promoted the expansion
Cells bearing the surface characteristics of IMCs/MDSCs (Gr-1+CD11b+) ([2]; normal culture conditions): completely ablated
